Patent US8329645B2, “Polymyxin derivatives and uses thereof” (priority 2008, dated 2012)
Like-named read-outs stand apart in the source and are kept apart here.

Tests used:
[1] = system: A. baumannii F264; test: E-test MIC of antibiotics on Mueller Hinton agar containing increasing concentrations of NAB739; type: cell-based, Acinetobacter baumannii
[2] = system: Ac. baumannii ATCC19606; test: E-test MIC with or without NAB7061 (4 μg/ml), Mueller-Hinton agar; type: cell-based, Acinetobacter baumannii; conditions: for MIC of carbapenem at NAB 7061 concn 0 μg/ml: A. baumannii ATCC19606, absence of NAB 7061; for MIC of antibiotic in the presence of 4 μg/ml of NAB 7061: Ac. baumannii ATCC19606
Description: (§1) MICs were determined by using E-strips (Biodisk Ltd., Solna, Sweden) according to the manufacturer's instructions.
(§2) The strains originated from ATCC (11 strains), CCUG (11 strains), and NCTC (The National Collection of Type Cultures, Colindale, U.K.; 2 strains). Eight strains (the F-strains) were purchased from Mobidiag Ltd., Helsinki, Finland.

[3] = system: Ac. baumannii F263; test: as above; type: cell-based, Acinetobacter baumannii; conditions: for MIC of carbapenem at NAB 7061 concn 0 μg/ml: A. baumannii F263, absence of NAB 7061; for MIC of antibiotic in the presence of 4 μg/ml of NAB 7061: Ac. baumannii F263
Description: as §1, §2

[4] = system: Ac. baumannii F264; test: as above; type: cell-based, Acinetobacter baumannii; conditions: for MIC of carbapenem at NAB 7061 concn 0 μg/ml: A. baumannii F264, absence of NAB 7061; for MIC of antibiotic in the presence of 4 μg/ml of NAB 7061: Ac. baumannii F264
Description: as §1, §2

[5] = system: P. aeruginosa ATCC 27853; test: E-test MIC of antibiotics on Mueller Hinton agar containing increasing concentrations of NAB739; type: cell-based, Pseudomonas aeruginosa
[6] = system: A. baumannii ATCC19606; test: as above; type: cell-based, Acinetobacter baumannii
[7] = system: E. coli IH3080; test: E-test MIC with or without NAB7061 (4 μg/ml), Mueller-Hinton agar; type: cell-based, Escherichia coli
Description: as §1, §2

[8] = system: both Acinetobacter strains (ATCC 19606 and F264); test: E-test sensitization by NAB739, both strains; type: cell-based, Acinetobacter baumannii
[9] = system: K. pneumoniae ATCC13883; conditions: K. pneumoniae ATCC13883
Description: as §1, §2

[10] = system: E. coli ATCC25922; conditions: E. coli ATCC25922
Description: as §1, §2

[11] = system: E. cloacae ATCC23355; test: E-test MIC with or without NAB7061 (4 μg/ml), Mueller-Hinton agar; type: cell-based, Enterobacter cloacae
Description: as §1, §2

[12] = system: E. coli (ATCC25922 and IH3080), K. pneumoniae ATCC13883, and E. cloacae ATCC23355; test: E-test sensitization by NAB7061, range over the tested strains; type: cell-based; conditions: four tested strains
Description: as §1

[13] = rat, Li et al. (2003), identical dosing and administration procedure, cited from earlier work
[14] = target: brush-border membrane (BBM) from the renal cortex; test: Inhibition of binding of radiolabelled gentamycin to brush-border membrane vesicles; conditions: rat renal cortex BBM vesicles; 20 μM [3H] gentamycin; 60 min at 4° C.
Description: The binding of the compounds according to this invention to isolated brush-border membrane (BBM) from the renal cortex can be measured indirectly by measuring their ability to inhibit the binding of radiolabelled gentamycin to BBM. Accordingly, the compounds according to this invention that have less affinity to BBM than for example polymyxin B inhibit the binding of radiolabelled gentamycin to a lesser degree than does polymyxin B.
BBM was isolated from the renal cortex of male albino rats by using the Mg^2+/EGTA precipitation technique as described by Nagai et al. (2006). The binding of gentamycin was measured, according to the method described by Nagai et al. (2006) by incubating BBM vesicles (20 μl) in 10 mM HEPES (pH 7.5) with 300 mM mannitol in the presence of 20 μM [^3H] gentamycin (American Radiolabeled Chemicals, Inc. (St. Louis, Mo., U.S.A.) with or without the compound to be tested or a positive control. After an incubation of 60 min at 4° C., 1 ml of ice-cold buffer described above was added, and the mixture was filtered through a Millipore filter (0.45 μm; HAWP). The filter was washed with the buffer and the radioactivity remaining in the filter was measured by using a liquid scintillation counter. The IC50 values were determined as in Nagai et al. (2006) using the Hill equation.

Compound | MIC of antibiotic in the presence of NAB739 ([1]; NAB 739 0 μg/ml) | MIC of antibiotic in the presence of NAB739 ([1]; NAB 739 0.5 μg/ml) | MIC of antibiotic in the presence of NAB739 ([1]; NAB 739 1 μg/ml) | MIC of antibiotic in the presence of NAB739 ([5]; NAB 739 0 μg/ml) | MIC of antibiotic in the presence of NAB739 ([5]; NAB 739 0.5 μg/ml) | MIC of antibiotic in the presence of NAB739 ([5]; NAB 739 1 μg/ml) | MIC of antibiotic in the presence of NAB739 ([5]; NAB 739 2 μg/ml) | MIC of antibiotic in the presence of NAB739 ([5]; NAB 739 […]) | MIC of antibiotic in the presence of NAB739 ([6]; NAB 739 0 μg/ml) | MIC of antibiotic in the presence of NAB739 ([6]; NAB 739 0.5 μg/ml) | MIC of antibiotic in the presence of NAB739 ([6]; NAB 739 1 μg/ml) | Sensitization factor to antibiotic (MIC without / with 4 μg/ml of NAB 7061) [7] | Sensitization factor to antibiotic (MIC without / with 4 μg/ml of NAB 7061) [9] | Sensitization factor to antibiotic (MIC without / with 4 μg/ml of NAB 7061) [10] | Sensitization factor to antibiotic (MIC without / with 4 μg/ml of NAB 7061) [11] | further results
C[C@@H](O)[C@H]1C(=O)N2C(C(=O)O)=C(S[C@@H]3CN[C@H](C(=O)N(C)C)C3)[C@H](C)[C@H]12 [meropenem] | >32 µg/mL | 1 µg/mL | 0.38 µg/mL | 0.25 µg/mL | 0.25 µg/mL | 0.25 µg/mL | 0.25 µg/mL | 0.25 µg/mL | 1 µg/mL | 0.25 µg/mL | 0.125 µg/mL |  |  |  |  | MIC of carbapenem at NAB 7061 concn 0 μg/ml [2]: 1.5 µg/mL; MIC of antibiotic in the presence of 4 μg/ml of NAB 7061 [2]: 0.75 µg/mL; MIC of carbapenem at NAB 7061 concn 0 μg/ml [3]: >32 µg/mL; MIC of antibiotic in the presence of 4 μg/ml of NAB 7061 [3]: 6 µg/mL; MIC of carbapenem at NAB 7061 concn 0 μg/ml [4]: 32 µg/mL; MIC of antibiotic in the presence of 4 μg/ml of NAB 7061 [4]: 4 µg/mL
C[C@@H](O)[C@H]1C(=O)N2C(C(=O)O)=C(SCCN=CN)C[C@H]12 [imipenem] |  |  |  |  |  |  |  |  |  |  |  |  |  |  |  | MIC of carbapenem at NAB 7061 concn 0 μg/ml [2]: 0.38 µg/mL; MIC of antibiotic in the presence of 4 μg/ml of NAB 7061 [2]: 0.38 µg/mL; MIC of carbapenem at NAB 7061 concn 0 μg/ml [3]: >32 µg/mL; MIC of antibiotic in the presence of 4 μg/ml of NAB 7061 [3]: 8 µg/mL; MIC of carbapenem at NAB 7061 concn 0 μg/ml [4]: 24 µg/mL; MIC of antibiotic in the presence of 4 μg/ml of NAB 7061 [4]: 6 µg/mL
CC(=O)O[C@H]1C[C@@]2(C)[C@@H](C[C@@H](O)[C@H]3[C@@]4(C)CC[C@@H](O)[C@@H](C)[C@@H]4CC[C@@]32C)/C1=C(\CCC=C(C)C)C(=O)O [Fusidic acid] | >256 µg/mL | 3 µg/mL | 1 µg/mL | >256 µg/mL | >256 µg/mL | >256 µg/mL | 192 µg/mL | >256 µg/mL | >256 µg/mL | 4 µg/mL | 1 µg/mL | >43 | >4 | >43 | >8 | sensitization factors to antibiotic at NAB739 0.5 μg/ml [8]: 64-85
CC[C@H]1OC(=O)[C@H](C)[C@@H](O[C@H]2C[C@@](C)(OC)[C@@H](O)[C@H](C)O2)[C@H](C)[C@@H](O[C@@H]2O[C@H](C)C[C@H](N(C)C)[C@H]2O)[C@](C)(O)C[C@@H](C)CN(C)[C@H](C)[C@@H](O)[C@]1(C)O [Azithromycin] |  |  |  |  |  |  |  |  |  |  |  | 31-94 | 31-43 | 24-64 | 32 | Sensitization factor to antibiotic at 4 μg/ml of NAB7061, range over the tested strains [12]: 31-94
CN[C@H](CC(C)C)C(=O)N[C@H]1C(=O)N[C@@H](CC(N)=O)C(=O)N[C@H]2C(=O)N[C@H]3C(=O)N[C@H](C(=O)N[C@H](C(=O)O)c4cc(O)cc(O)c4-c4cc3ccc4O)[C@H](O)c3ccc(c(Cl)c3)Oc3cc2cc(c3O[C@@H]2O[C@H](CO)[C@@H](O)[C@H](O)[C@H]2O[C@H]2C[C@](C)(N)[C@H](O)[C@H](C)O2)Oc2ccc(cc2Cl)[C@H]1O [Vancomycin] | >256 µg/mL | 3 µg/mL | 1 µg/mL | >256 µg/mL | >256 µg/mL | >256 µg/mL | >256 µg/mL | >256 µg/mL | >256 µg/mL | 3 µg/mL | 1 µg/mL | 2.5 | 1 | 5 | 32 | sensitization factors to antibiotic at NAB739 0.5 μg/ml [8]: 85
Colistin (polymyxin E) |  |  |  |  |  |  |  |  |  |  |  |  |  |  |  | clearance [13]: 5.2 ± 0.4 mL/min/kg; half-life [13]: 1.24 ± 0.22 h; renal clearance [13]: 0.010 ± 0.008 mL/min/kg; urinary recovery [13]: 0.18±0.14 % of dose in 24 h; volume of distribution [13]: 0.496 ± 0.06 L/kg; urinary recovery ([13]; listed as polymyxin E (colistin)): about 0.18±0.14 % of dose in 24 h
C/C(=C\C(=O)OCCCCCCCCC(=O)O)C[C@@H]1OC[C@H](C[C@@H]2O[C@H]2[C@@H](C)[C@H](C)O)[C@@H](O)[C@H]1O [Mupirocin] |  |  |  |  |  |  |  |  |  |  |  | 64-85 | 24-32 | 64-170 | 250-512 | Sensitization factor to antibiotic at 4 μg/ml of NAB7061, range over the tested strains [12]: 24-512
gentamycin [reference compound] |  |  |  |  |  |  |  |  |  |  |  |  |  |  |  | IC50 [14]: 90.2 ± 9.7 µM
